Source: patent publication US8865734B2 (priority 2010, dated 2014)
In brackets after ≈: the same amount, converted by molar mass.

How the values were obtained:
[1] = tested on: in vitro grown Mycobacteria (M. tuberculosis); experiment: QUM: Quantification of in vitro grown Mycobacteria (in vitro growth fluorescence assay); assay type: cell-based; conditions: Mycobacterium tuberculosis; MIC, 80% bacterial growth inhibition; in vitro growth; read-out: QUM
Method in brief: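 Mycobacterium tuberculosis grown in vitro was quantified by fluorescence across compound dose responses. MIC is defined as the minimum concentration producing 80% growth inhibition.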

[2] = tested on: M. tuberculosis inside the host macrophage; experiment: QIM: Quantification of Intracellular Mycobacteria (intracellular growth assay, phenotypic cell-based); conditions: Mycobacterium tuberculosis; MIC, 80% bacterial growth inhibition; intracellular growth; read-out: QIM
Method in brief: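 Phenotypic high-content assay measuring M. tuberculosis multiplication inside host macrophages, run as dose response. MIC is the minimum compound concentration giving 80% bacterial growth inhibition.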

Row | Compound | MIC [1] | MIC [2]
1 | CCc1nc2ccc(C)cn2c1C(=O)NCc1ccc(OC(F)(F)F)cc1 [Compound 65, 2-Ethyl-6-methyl-N-(4-(trifluoromethoxy)benzyl)imidazo[1,2-a]pyridine-3-carboxamide] | < 1 µM | < 1 µM
2 | Cc1nc2cc(Cl)ccn2c1C(=O)NCc1ccccc1 [Compound 28, N-Benzyl-7-chloro-2-methylimidazo[1,2-a]pyridine-3-carboxamide] | > 20 µM | 1 to 20 µM (≈ 0.3 to 6 µg/mL)
3 | CCc1nc2cc(Cl)ccn2c1C(=O)NCc1ccc(-c2ccccc2C)cc1 [Compound 96, 7-Chloro-2-ethyl-N-((2′-methylbiphenyl-4-yl)methyl)imidazo[1,2-a]pyridine-3-carboxamide] | < 1 µM | < 1 µM
4 | O=C(NCc1ccccc1)c1c(-c2ccccc2)nc2ccccn12 [Compound 53, N-Benzyl-2-phenylimidazo[1,2-a]pyridine-3-carboxamide] | > 20 µM | > 20 µM
5 | CCc1nc2cc(Cl)ccn2c1C(=O)NCc1ccc(Nc2ccc(OC(F)(F)F)cc2)cc1 [Compound 199, 7-Chloro-2-ethyl-N-(4-(4-(trifluoromethoxy)phenylamino)benzyl)imidazo[1,2-a]pyridine-3-carboxamide] | < 1 µM | < 1 µM
6 | CCc1nc2ccccn2c1C(=O)NCc1ccc(Oc2ccc(OC(F)(F)F)cc2)cc1 [Compound 192, 2-Ethyl-N-(4-(4-(trifluoromethoxy)phenoxy)benzyl)imidazo[1,2-a]pyridine-3-carboxamide] | < 1 µM | < 1 µM
7 | CCc1nc2cc(Cl)ccn2c1C(=O)NCc1ccc(O)cc1 [Compound 88, 7-Chloro-2-ethyl-N-(4-hydroxybenzyl)imidazo[1,2-a]pyridine-3-carboxamide] | 1 to 20 µM (≈ 0.33 to 6.6 µg/mL) | 1 to 20 µM (≈ 0.33 to 6.6 µg/mL)
8 | CCCCCNc1ccc(CNC(=O)c2c(CC)nc3cc(Cl)ccn23)cc1 [Compound 107, 7-Chloro-2-ethyl-N-(4-(pentylamino)benzyl)imidazo[1,2-a]pyridine-3-carboxamide] | < 1 µM | < 1 µM
9 | CCc1nc2ccc(Cl)cn2c1C(=O)NCc1ccc(Nc2ccc(OC(F)(F)F)cc2)cc1 [Compound 198, 6-Chloro-2-ethyl-N-(4-(4-(trifluoromethoxy)phenylamino)benzyl)imidazo[1,2-a]pyridine-3-carboxamide] | 1 to 20 µM (≈ 0.489 to 9.78 µg/mL) | < 1 µM
10 | CCc1nc2ccc(Cl)cn2c1C(=O)NCc1ccc(OCC(C)C)cc1 [Compound 76] | < 1 µM | < 1 µM
11 | COC(=O)[C@H](Cc1ccccc1)NC(=O)c1c(C)nc2ccccn12 [Compound 25, (S)-Methyl 2-(2-methylimidazo[1,2-a]pyridine-3-carboxamido)-3-phenylpropanoate] | > 20 µM | > 20 µM
12 | CCc1nc2cc(Cl)ccn2c1C(=O)NCc1ccc(-n2cccc2)cc1 [Compound 138, N-(4-(1H-Pyrrol-1-yl)benzyl)-7-chloro-2-ethylimidazo[1,2-a]pyridine-3-carboxamide] | < 1 µM | < 1 µM
13 | CCOC(=O)c1c(C)nc2cc(-c3ccccc3)ccn12 [Compound 2, Ethyl 2-methyl-7-phenylimidazo[1,2-a]pyridine-3-carboxylate] | > 20 µM | > 20 µM
14 | CCc1nc2cc(Cl)ccn2c1C(=O)NCc1ccc(-c2ccccc2C#N)cc1 [Compound 126, 7-Chloro-N-((2′-cyanobiphenyl-4-yl)methyl)-2-ethylimidazo[1,2-a]pyridine-3-carboxamide] | < 1 µM | 1 to 20 µM (≈ 0.415 to 8.3 µg/mL)
15 | CCc1nc2cc(Cl)ccn2c1-c1nnc(CN2CCN(c3ccc(OC(F)(F)F)cc3)CC2)o1 [Compound 244, 2-(7-Chloro-2-ethylimidazo[1,2-a]pyridin-3-yl)-5-((4-(4-(trifluoromethoxy)phenyl)piperazin-1-yl)methyl)-1,3,4-oxadiazole] | 1 to 20 µM (≈ 0.507 to 10.1 µg/mL) | 1 to 20 µM (≈ 0.507 to 10.1 µg/mL)
16 | Cc1nc2c(O)cccn2c1C(=O)NCc1ccccc1 [Compound 43, N-Benzyl-8-hydroxy-2-methylimidazo[1,2-a]pyridine-3-carboxamide] | > 20 µM | > 20 µM
17 | Cc1nc2c(Cl)cccn2c1C(=O)NCc1ccccc1 [Compound 27, N-Benzyl-8-chloro-2-methylimidazo[1,2-a]pyridine-3-carboxamide] | > 20 µM | > 20 µM
18 | CCc1nc2cc(Cl)ccn2c1C(=O)NCc1ccc(N2CCC(=O)CC2)cc1 [Compound 269, 7-Chloro-2-ethyl-N-(4-(4-oxopiperidin-1-yl)benzyl)imidazo[1,2-a]pyridine-3-carboxamide] | < 1 µM | 1 to 20 µM (≈ 0.411 to 8.22 µg/mL)
19 | CCc1nc2cc(Cl)ccn2c1C(=O)NCc1ccc(-c2ccc(C#N)cc2)cc1 [Compound 122, 7-Chloro-N-((4′-cyanobiphenyl-4-yl)methyl)-2-ethylimidazo[1,2-a]pyridine-3-carboxamide] | < 1 µM | < 1 µM

Row | Compound | MIC [1] | MIC [2]
20 | CCc1nc2cc(Cl)ccn2c1C(=O)NCc1ccc(-c2ccc(C(C)(C)C)cc2)cc1 [Compound 117, N-((4′-tert-Butylbiphenyl-4-yl)methyl)-7-chloro-2-ethylimidazo[1,2-a]pyridine-3-carboxamide] | < 1 µM | < 1 µM
21 | CCc1nc2cc(Cl)c(Cl)cn2c1C(=O)NCc1ccc(N2CCN(Cc3ccc(F)cc3)CC2)cc1 [Compound 175, 6,7-Dichloro-2-ethyl-N-(4-(4-(4-fluorobenzyl)piperazin-1-yl)benzyl)imidazo[1,2-a]pyridine-3-carboxamide] | > 20 µM | < 1 µM
22 | COC(=O)c1ccc(CNC(=O)c2c(C)nc3ccccn23)cc1 [Compound 10, Methyl 4-((2-me3thylimidazo[1,2-a]pyridine-3-carboxamido)methyl)benzoate] | 1 to 20 µM (≈ 0.323 to 6.47 µg/mL) | > 20 µM
23 | CCc1nc2ccc(Cl)cn2c1C(=O)NCc1ccc(OC(C)C)cc1 [Compound 75] | < 1 µM | < 1 µM
24 | CCc1nc2cc(Cl)ccn2c1C(=O)NCc1ccn(-c2ccc(C(F)(F)F)cc2)n1 [Compound 234, 7-Chloro-2-ethyl-N-((1-(4-(trifluoromethyl)phenyl)-1H-pyrazol-3-yl)methyl)imidazo[1,2-a]pyridine-3-carboxamide] | 1 to 20 µM (≈ 0.448 to 8.96 µg/mL) | 1 to 20 µM (≈ 0.448 to 8.96 µg/mL)
25 | CCc1nc2cc(Cl)ccn2c1C(=O)NCc1ccc(OCc2ccc(F)cc2)cc1 [Compound 203, 7-Chloro-2-ethyl-N-(4-(4-fluorobenzyloxy)benzyl)imidazo[1,2-a]pyridine-3-carboxamide] | 1 to 20 µM (≈ 0.438 to 8.76 µg/mL) | 1 to 20 µM (≈ 0.438 to 8.76 µg/mL)
26 | CCc1nc2cc(Cl)ccn2c1C(=O)NCc1ccc(-c2ccc(OC)cc2)cc1 [Compound 118, 7-Chloro-2-ethyl-N-((4′-methoxybiphenyl-4-yl)methyl)imidazo[1,2-a]pyridine-3-carboxamide] | < 1 µM | < 1 µM
27 | CCc1nc2ccc(Cl)cn2c1C(=O)NCC1CCCc2c1cnn2-c1ccc(OC(F)(F)F)cc1 (stereo not shown) [Compound 237, 6-Chloro-2-ethyl-N-((1-(4-(trifluoromethoxy)phenyl)-4,5,6,7-tetrahydro-1,1-indazol-4-yl)methyl)imidazo[1,2-a]pyridine-3-carboxamide] | > 20 µM | > 20 µM
28 | CCc1nc2ccc(Br)cn2c1C(=O)NCc1ccc(OC(F)(F)F)cc1 [Compound 152, 6-Bromo-2-ethyl-N-(4-(trifluoromethoxy)benzyl)imidazo[1,2-a]pyridine-3-carboxamide] | < 1 µM | < 1 µM
29 | CC(C)(C)c1ccc(CNC(=O)c2c(C(F)(F)F)nc3ccc(Cl)cn23)cc1 [Compound 100, N-(4-tert-Butylbenzyl)-6-chloro-2-(trifluoromethyl)imidazo[1,2-a]pyridine-3-carboxamide] | < 1 µM | < 1 µM
30 | CCc1nc2cnccn2c1C(=O)NCc1ccc(-c2ccc(Cl)cc2)cc1 [Compound 141, N-((4′-Chlorobiphenyl-4-yl)methyl)-2-ethylimidazo[1,2-a]pyrazine-3-carboxamide] | < 1 µM | < 1 µM
31 | CCc1nc2ccc(F)cn2c1C(=O)NCc1ccc(OC(F)(F)F)cc1 [Compound 103, 2-Ethyl-6-fluoro-N-(4-(trifluoromethoxy)benzyl)imidazo[1,2-a]pyridine-3-carboxamide] | 1 to 20 µM (≈ 0.381 to 7.63 µg/mL) | < 1 µM
32 | CCc1nc2cc(Cl)ccn2c1C(=O)NCc1ccc(N2CCCC2)cc1 [Compound 212, 7-Chloro-2-ethyl-N-(4-(pyrrolidin-1-yl)benzyl)imidazo[1,2-a]pyridine-3-carboxamide] | < 1 µM | < 1 µM
33 | CCCC(=O)NCc1ccc(N2CCN(c3ccc(CNC(=O)c4c(CC)nc5cc(Cl)ccn45)cc3)CC2)cc1 [Compound 144, N-(4-(4-(4-(Butyramidomethyl)phenyl)piperazin-1-yl)benzyl)-7-chloro-2-ethylimidazo-[1,2-a]pyridine-3-carboxamide] | < 1 µM | < 1 µM
34 | CCc1nc2cc(Cl)ccn2c1C(=O)NCc1ccc(-c2ccco2)cc1 [Compound 137, 7-Chloro-2-ethyl-N-(4-(furan-2-yl)benzyl)imidazo[1,2-a]pyridine-3-carboxamide] | 1 to 20 µM (≈ 0.38 to 7.6 µg/mL) | < 1 µM
35 | CCc1nc2cc(Cl)ccn2c1C(=O)NCc1ccc(N2CCN(C)CC2)cc1 [Compound 109, 7-Chloro-2-ethyl-N-(4-(4-methylpiperazin-1-yl)benzyl)imidazo[1,2-a]pyridine-3-carboxamide] | 1 to 20 µM (≈ 0.412 to 8.24 µg/mL) | 1 to 20 µM (≈ 0.412 to 8.24 µg/mL)
36 | CCc1nc2cc([N+](=O)[O-])ccn2c1C(=O)NCc1ccc(OC(F)(F)F)cc1 [Compound 150, 2-Ethyl-7-nitro-N-(4-(trifluoromethoxy)benzyl)imidazo[1,2-a]pyridine-3-carboxamide] | > 20 µM | > 20 µM
37 | Cc1nc2ccc(Cl)cn2c1C(=O)NCc1ccc(-c2ccccc2)cc1 [Compound 44] | < 1 µM | < 1 µM
38 | CCc1nc2ccc(C)cn2c1C(=O)NCc1ccc(Oc2ccccc2)cc1 [Compound 63, 2-Ethyl-6-methyl-N-(4-phenoxybenzyl)imidazo[1,2-a]pyridine-3-carboxamide] | < 1 µM | < 1 µM
